The record followed here is US20110086759A1, “CHEMICAL COMPOUNDS” (SYNGENTA CROP PROTECTION, INC., priority 2007, published 2011).

Format in all cases: in vivo
Assay [1] concerns Alopecurus myosuroides (ALOMY). As to the kind of experiment: Post-emergence biological efficacy, glasshouse pot test. Conditions: 312 h, Rate 1,000 g/ha, post-emergence spray, evaluated after 13 days (100=total damage to plant; 0=no damage to plant), read-out: Percentage damage caused to weed species, post-emergence, ALOMY. The method, boiled down:
(§1)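 Plants were sown in standard soil and grown 8 days in a glasshouse (24/16° C. day/night, 14 hours light, 65% humidity), then sprayed post-emergence at 1000 or 250 g/ha from acetone/water (50:50) with 0.5% Tween 20. Damage was scored visually after 13 days (0 = none, 100 = total).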

The test system of assay [2] is Setaria faberi (SETFA). The assay is described as above. Conditions: 312 h, Rate 1,000 g/ha, post-emergence spray, evaluated after 13 days (100=total damage to plant; 0=no damage to plant), read-out: Percentage damage caused to weed species, post-emergence, SETFA. Summed up:
as §1

Assay [3] deals with Solanum nigrum (SOLNI). Described as above. Conditions: 312 h, Rate 1,000 g/ha, post-emergence spray, evaluated after 13 days (100=total damage to plant; 0=no damage to plant), read-out: Percentage damage caused to weed species, post-emergence, SOLNI. Summed up:
as §1

The subject of assay [4] is Echinochloa crus-galli (ECHCG). The assay is described as above. The following applies: 312 h, Rate 1,000 g/ha, post-emergence spray, evaluated after 13 days (100=total damage to plant; 0=no damage to plant), read-out: Percentage damage caused to weed species, post-emergence, ECHCG. The method, boiled down:
as §1

Assay [5] has as its system Ipomea hederaceae (IPOHE). Described as above. The following applies: Ipomoea hederacea, 312 h; Rate 1,000 g/ha; post-emergence spray; evaluated after 13 days (100=total damage to plant; 0=no damage to plant); read-out: Percentage damage caused to weed species, post-emergence, IPOHE. The method, boiled down: as §1
In assay [6] the test system is Amaranthus retoflexus (AMARE). Described as above. The following applies: Amaranthus retroflexus, 312 h; Rate 1,000 g/ha; post-emergence spray; evaluated after 13 days (100=total damage to plant; 0=no damage to plant); read-out: Percentage damage caused to weed species, post-emergence, AMARE. Summed up:
as §1

Assay [7] concerns Alopecurus myosuroides (ALOMY). Briefly: Pre-emergence biological efficacy, glasshouse pot test. Conditions: 312 h, pre-emergence, rate 1,000 g/ha, evaluated after 13 days (100=total damage to plant; 0=no damage), read-out: Percentage damage caused to weed species, ALOMY. The method, boiled down: (§2)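 Test compound, formulated in acetone/water (50:50) containing 0.5% Tween 20 and diluted into an aqueous spray, was applied at 1000 or 250 g/ha to pots sown one day earlier. Injury was rated after 13 days, 100 meaning total damage.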

Assay [8] concerns Setaria faberi (SETFA). Described as above. The following applies: 312 h, pre-emergence, rate 1,000 g/ha, evaluated after 13 days (100=total damage to plant; 0=no damage), read-out: Percentage damage caused to weed species, SETFA. The method, boiled down:
as §2

Assay [9] concerns Solanum nigrum (SOLNI). The assay is described as above. Conditions: 312 h, pre-emergence, rate 1,000 g/ha, evaluated after 13 days (100=total damage to plant; 0=no damage), read-out: Percentage damage caused to weed species, SOLNI. The method, boiled down:
as §2

In assay [10] the test system is Echinochloa crus-galli (ECHCG). The description is as above. The following applies: 312 h, pre-emergence, rate 1,000 g/ha, evaluated after 13 days (100=total damage to plant; 0=no damage), read-out: Percentage damage caused to weed species, ECHCG. Summed up:
as §2

Assay [11] deals with Ipomea hederaceae (IPOHE). Described as above. The following applies: Ipomoea hederacea, 312 h; pre-emergence, rate 1,000 g/ha, evaluated after 13 days (100=total damage to plant; 0=no damage); read-out: Percentage damage caused to weed species, IPOHE. The method, boiled down: as §2
In assay [12] the test system is Amaranthus retoflexus (AMARE). The assay is described as above. The following applies: Amaranthus retroflexus, 312 h; pre-emergence, rate 1,000 g/ha, evaluated after 13 days (100=total damage to plant; 0=no damage); read-out: Percentage damage caused to weed species, AMARE. Summed up: as §2

Turning to `COC(=O)c1nc(-c2ccc(OC)c(OC)c2)nc(NCc2ccco2)c1Cl` [Compound 260-48, 5-Chloro-2-(3,4-dimethoxyphenyl)-4-(furan-2-ylmethyl-amino)-6-methoxy-carbonylpyrimidine], the pest or weed control at 1000 g/ha in [1] was found to be 0%; in the assay on Setaria faberi (SETFA) [2], 0%; with Solanum nigrum (SOLNI) [3], 30%; in assay [4], 0%; in assay [5], 0%; in assay [6], 20%. For the same molecule, the pest or weed control at 1000 g/ha (in assay [7]; in the assay with Setaria faberi (SETFA) [8]; with Solanum nigrum (SOLNI) [9]; in [10]; in assay [11]; in [12]) was 0% throughout.

`COC(=O)c1nc(-c2ccc(Cl)c(N(C)C)c2F)nc(NCc2ccco2)c1Cl` [Compound 261-48, 5-Chloro-2-(4-chloro-3-dimethylamino-2-fluorophenyl)-4-(furan-2-yl-methyl-amino)-6-methoxy-carbonylpyrimidine]: the pest or weed control at 1000 g/ha in assay [1] is 50%; in the assay on Setaria faberi (SETFA) [2], 90%; with Solanum nigrum (SOLNI) [3] it was 80%; in [4], 70%; in assay [5], 60%; in assay [6] it was 100%. For the same molecule, the pest or weed control at 1000 g/ha in assay [7] worked out at 50%; in the assay with Setaria faberi (SETFA) [8] it was 90%; with Solanum nigrum (SOLNI) [9], 40%; in assay [10], 90%; in assay [11], 30%; in assay [12] it was 100%.

`COC(=O)c1nc(-c2ccc(Cl)s2)nc(NC2CC2)c1Cl` [Compound 262-30, 5-Chloro-2-(5-chloro-thiophen-2-yl)-4-cyclopropylamino-6-methoxycarbonyl-pyrimidine]: the pest or weed control at 1000 g/ha in assay [1] is 0%; in the assay on Setaria faberi (SETFA) [2], 10%; in the assay with Solanum nigrum (SOLNI) [3], 90%; in [4], 10%; in assay [5] it was 50%; in [6], 80%. Also, the pest or weed control at 1000 g/ha (in assay [7]; in the assay with Setaria faberi (SETFA) [8]; with Solanum nigrum (SOLNI) [9]; in assay [10]; in assay [11]; in assay [12]) was 0% each time.

`COC(=O)c1nc(-c2ccc(Cl)s2)nc(NCc2ccco2)c1Cl` [Compound 262-48, 5-Chloro-2-(5-chlorothiophen-2-yl)-4-(furan-2-yl-methylamino)-6-methoxycarbonyl-pyrimidine]: the pest or weed control at 1000 g/ha in assay [1] came out at 20%; with Setaria faberi (SETFA) [2], 0%; in the assay on Solanum nigrum (SOLNI) [3], 80%; in assay [4], 20%; in assay [5], 60%; in assay [6], 100%. Besides, the pest or weed control at 1000 g/ha was determined as 0% in [7]; 0% with Setaria faberi (SETFA) [8]; 20% in the assay on Solanum nigrum (SOLNI) [9]; 0% in [10]; 0% in assay [11]; 80% in [12].

As for `O=C(NCc1ccccc1)c1nc(C2CC2)nc(NCc2ccccc2)c1Cl` [Compound 265-1, 5-chloro-2-cyclopropyl-4-phenylmethylamino-6-phenylmethylaminocarbonyl pyrimidine], the pest or weed control at 1000 g/ha amounted to 10% in assay [1]; 0% with Setaria faberi (SETFA) [2]; 50% with Solanum nigrum (SOLNI) [3]; 0% in [4]; 70% in [5]; 80% in assay [6]. In addition, the pest or weed control at 1000 g/ha in assay [7] came to 0%; in the assay on Setaria faberi (SETFA) [8], 0%; with Solanum nigrum (SOLNI) [9], 10%; in assay [10], 0%; in assay [11], 0%; in assay [12], 30%.

Turning to `O=C(NCc1ccco1)c1nc(C2CC2)nc(NCc2ccco2)c1Cl` [Compound 265-3, 5-Chloro-2-cyclopropyl-4-(furan-2-ylmethylamino)-6-(furan-2-yl-methylamino-carbonyl)-pyrimidine], the pest or weed control at 1000 g/ha in assay [1] came out at 20%; with Setaria faberi (SETFA) [2], 20%; in the assay with Solanum nigrum (SOLNI) [3], 70%; in assay [4], 30%; in assay [5], 70%; in assay [6], 70%. The pest or weed control at 1000 g/ha in assay [7] was 20%; in the assay with Setaria faberi (SETFA) [8] it was 40%; in the assay with Solanum nigrum (SOLNI) [9], 60%; in [10], 30%; in [11], 90%; in [12] it was 60%.

As to `O=C(NCc1cccs1)c1nc(C2CC2)nc(NCc2cccs2)c1Cl` [Compound 265-4, 5-Chloro-2-cyclopropyl-4-(thiophen-2-ylmethylamino)-6-(thiophen-2-yl-methylamino-carbonyl)-pyrimidine], the pest or weed control at 1000 g/ha worked out at 20% in assay [1]; 20% with Setaria faberi (SETFA) [2]; 50% in the assay with Solanum nigrum (SOLNI) [3]; 20% in [4]; 50% in [5]; 50% in assay [6]. Moreover, the pest or weed control at 1000 g/ha came to 0% in assay [7]; 0% in the assay with Setaria faberi (SETFA) [8]; 0% in the assay with Solanum nigrum (SOLNI) [9]; 0% in assay [10]; 0% in assay [11]; 20% in assay [12].

Regarding `Cc1c(NCC2CC2)nc(C2CC2)nc1OCC(=O)NCC1CC1` [Compound 266-20, 2-cyclopropyl-4-cyclopropylmethylamino-6-cyclopropylmethylaminocarbonylmethoxy-5-methylpyrimidine], the pest or weed control at 1000 g/ha turned out to be 0% in assay [1]; 0% with Setaria faberi (SETFA) [2]; 80% with Solanum nigrum (SOLNI) [3]; 0% in [4]; 70% in assay [5]; 90% in [6]. The pest or weed control at 1000 g/ha was determined as 0% in assay [7]; 0% in the assay with Setaria faberi (SETFA) [8]; 50% in the assay on Solanum nigrum (SOLNI) [9]; 0% in assay [10]; 40% in assay [11]; 100% in [12].
